{"source": "patent US8158352B2", "about": "“Screening of a novel hepatic syndrome and its uses” (Assistance Publique-Hopitaux de Paris, priority 2000, dated 2012)", "test_system": "hepatic bile of patients with intrahepatic cholestasis, cholesterol microcholelithiasis and MDR3 gene abnormality", "assay": "Bile lipid composition of the hepatic bile from patients receiving treatment with UDCA", "assay_type": "in vivo, human", "conditions": "for Cholesterol saturation index (CSI): calculated from Carey's critical tables", "description": "The concentration of total bile salts is measured by an enzymatic technique using 3α-hydroxysteroid dehydrogenase (Enzabile, Nycomed, Oslo, Norway). The content of total phospholipids is determined by an enzymatic method in the presence of phospholipase D and choline oxidase. The cholesterol is determined by an enzymatic reaction with cholesterol oxidase or cholesterol esterase. The cholesterol saturation indices for the hepatic bile samples are calculated from Carey's critical tables (J. Lipid Res., 1978, 19, 945-955).\nThe bile lipid composition of the hepatic bile was studied using samples obtained by radioscopy of the duodenum (patients 2 and 3) or using a T tube (patients 5 and 6). The results obtained in the untreated patients or the patients receiving treatment with UDCA are given respectively in Tables V and VI below.", "key": {"[1]": {"conditions": "Case 5, receiving treatment with UDCA"}, "[2]": {"conditions": "Case 6, receiving treatment with UDCA"}}}
{"smiles": "C[C@H](CCC(=O)O)[C@H]1CC[C@H]2[C@@H]3[C@@H](O)C[C@@H]4C[C@H](O)CC[C@]4(C)[C@H]3CC[C@]12C", "note": "[UDCA, ursodeoxycholic acid]", "values": [{"measurement": "Bile lipid classes: Bile salts (BS)", "setting": "[1]", "result": 47.5, "unit": "mol %"}, {"measurement": "Bile lipid classes: Cholesterol (CH)", "setting": "[1]", "result": 16.8, "unit": "mol %"}, {"measurement": "Bile lipid classes: Phospholipids (PL)", "setting": "[1]", "result": 35.7, "unit": "mol %"}, {"measurement": "Concentration of bile PL", "setting": "[1]", "result": 7.77}, {"measurement": "Lipid ratios: CH/BS", "setting": "[1]", "result": 0.35}, {"measurement": "Lipid ratios: CH/PL", "setting": "[1]", "result": 0.47}, {"measurement": "Lipid ratios: PL/BS", "setting": "[1]", "result": 0.75}, {"measurement": "Cholesterol saturation index (CSI)", "setting": "[1]", "result": 4.0}, {"measurement": "Bile lipid classes: Bile salts (BS)", "setting": "[2]", "result": 72, "unit": "mol %"}, {"measurement": "Bile lipid classes: Cholesterol (CH)", "setting": "[2]", "result": 8.2, "unit": "mol %"}, {"measurement": "Bile lipid classes: Phospholipids (PL)", "setting": "[2]", "result": 19.7, "unit": "mol %"}, {"measurement": "Concentration of bile PL", "setting": "[2]", "result": 6.03}, {"measurement": "Lipid ratios: CH/BS", "setting": "[2]", "result": 0.11}, {"measurement": "Lipid ratios: CH/PL", "setting": "[2]", "result": 0.42}, {"measurement": "Lipid ratios: PL/BS", "setting": "[2]", "result": 0.27}, {"measurement": "Cholesterol saturation index (CSI)", "setting": "[2]", "result": 1.8}]}
